Measured values taken from US10577378B2, “EIF4A-inhibiting compounds and methods related thereto” (eFFECTOR Therapeutics, Inc., priority 2015, dated 2020).

Test system: MDA-MB-231 human breast cancer cells
Test: Cell proliferation assay (CellTiter-Glo, 72 hours treatment)
Assay type: cell-based
Details: Homo sapiens; MDA-MB-231 cells, 72 hours at 37° C., CellTiter-Glo; read-out: MDA-MB-231 cell proliferation assay (IC50)
How it was run: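 IC50 categories: under 100 nM +++, 100–1000 nM ++, above 1000 nM +, derived by sigmoidal curve fitting of CellTiter-Glo luminescence. Cells plated at 2,500 per well, dosed the following day and exposed 72 h at 37 °C versus DMSO control.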

SMILES	IC50 [nM]
COc1nc(Cl)cc2c1[C@]1(O)[C@H](O)[C@H](CN3CCN(C)CC3)[C@@H](c3ccccc3)[C@]1(c1ccc(C#N)cc1)O2 (single isomer, unassigned) [198Fa]	< 100
COc1ccc([C@@]23Oc4cc(Cl)cnc4[C@]2(O)[C@H](O)[C@H](C(=O)N(C)C)[C@H]3c2ccccc2)cc1 (single isomer, unassigned) [5F]	100 to 1000
COc1cncc2c1[C@]1(O)[C@H](O)[C@H](C(=O)N3CCN(C)CC3)[C@@H](c3ccccc3)[C@]1(c1ccc(C(F)(F)F)cc1)O2 (racemic) [283F, rac-((4bS,5R,6R,7S,7aR)-4b,5-dihydroxy-4-methoxy-7-phenyl-7a-(4-(trifluoromethyl)phenyl)-4b,6,7,7a-tetrahydro-5H-cyclopenta[4,5]furo[2,3-c]pyridin-6-yl)(4-methylpiperazin-1-yl)methanone]	100 to 1000
O[C@@H]1C(F)(F)[C@@H](c2ccccc2)[C@]2(c3ccc(Br)cc3)Oc3cc(Cl)cnc3[C@]12O (racemic) [91F, Rac-(5aR,6S,8S,8aS)-5a-(4-bromophenyl)-3-chloro-7,7-difluoro-6-phenyl-5a,6,7,8-tetrahydro-8aH-cyclopenta[4,5]furo[3,2-b]pyridine-8,8a-diol]	> 1000
O[C@]12c3ncc(Cl)cc3O[C@@]1(c1ccc(Br)cc1)[C@H](c1ccccc1)C[C@@H]2CN1CCOCC1 (racemic) [177F, rac-(5aR,6S,8R,8aR)-5a-(4-bromophenyl)-3-chloro-8-(morpholinomethyl)-6-phenyl-5a,6,7,8-tetrahydro-8aH-cyclopenta[4,5]furo[3,2-b]pyridin-8a-ol]	100 to 1000
COc1nc(Cl)cc2c1[C@]1(O)[C@H](O)[C@H](CN3CCOCC3)[C@@H](c3ccccc3)[C@]1(c1ccc(C#N)cc1)O2 (racemic) [152F, Rac-4-((5aR,6S,7S,8R,8aS)-3-chloro-8,8a-dihydroxy-1-methoxy-7-(morpholinomethyl)-6-phenyl-6,7,8,8a-tetrahydro-5aH-cyclopenta[4,5]furo[3,2-c]pyridin-5a-yl)benzonitrile]	< 100
COc1nc(C#N)cc2c1[C@]1(O)[C@H](O)[C@H](CN3CCC(F)(F)CC3)[C@@H](c3ccccc3)[C@]1(c1ccc(Br)cc1)O2 (racemic) [157Fa, Rac-(5aR,6S,7S,8R,8aS)-5a-(4-bromophenyl)-7-((4,4-difluoropiperidin-1-yl)methyl)-8,8a-dihydroxy-1-methoxy-6-phenyl-5a,7,8,8a-tetrahydro-6H-cyclopenta[4,5]furo[3,2-c]pyridine-3-carbonitrile]	100 to 1000
COc1cncc2c1[C@]1(O)[C@@H]3OC(=O)N[C@@H]3[C@@H](c3ccccc3)[C@]1(c1ccc(C(F)F)cc1)O2 (racemic) [269F, rac-(3aR,4R,4aR,9bS,9cR)-4a-(4-(difluoromethyl)phenyl)-9b-hydroxy-9-methoxy-4-phenyl-3,3a,4,4a,9b,9c-hexahydro-2H-oxazolo[4″,5″:4′,5′]cyclopenta[1′,2′:4,5]furo[2,3-c]pyridin-2-one]	< 100
COc1cncc2c1[C@]1(O)[C@H](O)[C@H](C(=O)NCC(F)(F)F)[C@@H](c3ccccc3)[C@]1(c1ccc(Br)cc1)O2 (racemic) [90F, Rac-(4bS,5R,6R,7S,7aR)-7a-(4-bromophenyl)-4b,5-dihydroxy-4-methoxy-7-phenyl-N-(2,2,2-trifluoroethyl)-4b,6,7,7a-tetrahydro-5H-cyclopenta[4,5]furo[2,3-c]pyridine-6-carboxamide]	< 100
N#Cc1ccc([C@@]23Oc4cc(Cl)cnc4[C@]2(O)[C@H](O)[C@H](S(=O)(=O)Cc2ccccc2)[C@H]3c2ccccc2)cc1 (racemic) [94F, Rac-4-((5aR,6S,7R,8S,8aS)-7-(benzylsulfonyl)-3-chloro-8,8a-dihydroxy-6-phenyl-6,7,8,8a-tetrahydro-5aH-cyclopenta[4,5]furo[3,2-b]pyridin-5a-yl)benzonitrile]	> 1000
